Source: US20230118688A1, “1H-PYRAZOLO[4,3-d]PYRIMIDINE COMPOUNDS AS TOLL-LIKE RECEPTOR 7 (TLR7) AGONISTS” (BRISTOL-MYERS SQUIBB COMPANY, priority 2020, published 2023)
Like-named read-outs stand apart in the source and are kept apart here.

Key:
CD69 = experiment: Induction of CD69 in human whole blood; format: cell-based; details: 17 h, CD69 surface staining, 100% set to 1 uM resiquimod
Outline: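 Heparinized human whole blood, RPMI-diluted, incubated with TLR7 agonist (final 1 uM from 1 mM stock) for 17 h at 37 °C. CD69-PE surface staining with CD14/CD19 gating, fix/lysis, then flow cytometry; curves normalized with 1 uM resiquimod as 100%.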

human TLR7 = molecular target: T1, human TLR7 (Homo sapiens, UniProt Q9NYK1); experiment: Human TLR7 agonist activity reporter assay (HEK-Blue TLR7 cells, SEAP reporter); format: cell-based; details: 18 h treatment
T1 construct: host or cells: HEK-Blue TLR7 cells (engineered human embryonic kidney cells)
T1 sequence (Q9NYK1 27-1049): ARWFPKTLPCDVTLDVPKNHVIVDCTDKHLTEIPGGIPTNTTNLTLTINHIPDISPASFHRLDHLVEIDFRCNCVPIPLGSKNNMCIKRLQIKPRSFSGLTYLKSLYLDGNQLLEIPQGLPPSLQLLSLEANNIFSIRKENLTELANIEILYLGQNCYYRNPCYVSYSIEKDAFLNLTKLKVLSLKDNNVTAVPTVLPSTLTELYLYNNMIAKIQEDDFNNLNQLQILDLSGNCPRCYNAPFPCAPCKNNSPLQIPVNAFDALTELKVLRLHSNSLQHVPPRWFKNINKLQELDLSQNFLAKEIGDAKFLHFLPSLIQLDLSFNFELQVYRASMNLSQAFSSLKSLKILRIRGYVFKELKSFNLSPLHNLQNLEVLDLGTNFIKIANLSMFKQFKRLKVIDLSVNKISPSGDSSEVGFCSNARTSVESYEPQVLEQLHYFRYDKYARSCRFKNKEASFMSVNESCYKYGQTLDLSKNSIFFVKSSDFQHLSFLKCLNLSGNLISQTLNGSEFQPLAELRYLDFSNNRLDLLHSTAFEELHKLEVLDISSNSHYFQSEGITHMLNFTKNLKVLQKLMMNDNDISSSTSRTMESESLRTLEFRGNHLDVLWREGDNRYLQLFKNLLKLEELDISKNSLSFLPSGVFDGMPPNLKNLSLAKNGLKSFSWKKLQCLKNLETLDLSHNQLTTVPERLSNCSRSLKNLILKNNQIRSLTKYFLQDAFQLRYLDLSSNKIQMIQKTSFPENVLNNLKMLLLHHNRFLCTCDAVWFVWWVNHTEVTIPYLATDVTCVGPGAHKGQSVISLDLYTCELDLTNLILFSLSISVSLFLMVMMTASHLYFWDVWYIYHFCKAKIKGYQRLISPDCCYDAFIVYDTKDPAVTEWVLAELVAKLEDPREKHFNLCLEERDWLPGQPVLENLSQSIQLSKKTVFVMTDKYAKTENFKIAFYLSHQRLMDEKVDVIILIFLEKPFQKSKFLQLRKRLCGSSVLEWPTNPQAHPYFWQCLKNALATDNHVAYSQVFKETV
Outline: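 HEK-Blue TLR7 cells (15,000/well) treated with compound for 18 h at 37 °C, 5% CO2. Secreted SEAP measured with Quanti-Blue, 30 min, OD 620 nm. EC50 taken as concentration giving half-maximal response between baseline and maximum.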

[1] = Table A2, read-out: hWB CD69 EC50
[2] = Table A2, read-out: hTLR7 Agonism EC50
[3] = average where assay repeated, Table A1, read-out: hWB CD69 EC50
[4] = average where assay repeated, Table A1, read-out: hTLR7 Agonism EC50

| EC50 (CD69; [1]) | EC50 (human TLR7; [2]) | EC50 (CD69; [3]) | EC50 (human TLR7; [4]) | Molecule |
| --- | --- | --- | --- | --- |
| 0.14 µM | 0.437 µM | – | – | CCC[C@@H](CCO)Nc1nc(N)nc2cnn(Cc3cc(CN4C[C@H]5C[C@@H]4CN5C)c(F)cc3OC)c12 [Compound 171, (3S)-3-({5-amino-1-[(4-fluoro-2-methoxy-5-{[(1R,4R)-5-methyl-2,5-diazabicyclo[2.2.1]heptan-2-yl]methyl}phenyl)methyl]-1H-pyrazolo[4,3-d]pyrimidin-7-yl}amino)hexan-1-ol] |
| 0.0298 µM | 0.167 µM | – | – | CCC[C@@H](CCO)Nc1nc(N)nc2cnn(Cc3cc(CNCCO)c(F)cc3OC)c12 [Compound 172, (3S)-3-({5-amino-1-[(4-fluoro-5-{[(2-hydroxyethyl)amino]methyl}-2-methoxyphenyl)methyl]-1H-pyrazolo[4,3-d]pyrimidin-7-yl}amino)hexan-1-ol] |
| 0.0232 µM | 0.04 µM | – | – | CCC[C@@H](CCO)Nc1nc(N)nc2cnn(Cc3cc(CNCCS(C)(=O)=O)c(F)cc3OC)c12 [Compound 173, (3S)-3-({5-amino-1-[(4-fluoro-5-{[(2-methanesulfonylethyl)amino]methyl}-2-methoxyphenyl)methyl]-1H-pyrazolo[4,3-d]pyrimidin-7-yl}amino)hexan-1-ol] |
| 0.0414 µM | 0.0961 µM | – | – | CCC[C@@H](CCO)Nc1nc(N)nc2cnn(Cc3nc(CO)ccc3OC)c12 [Compound 174, (3S)-3-[(5-amino-1-{[6-(hydroxyl-methyl)-3-methoxypyridin-2-yl]methyl}-1H-pyrazolo[4,3-d]pyrimidin-7-yl)amino]hexan-1-ol] |
| 0.077 µM | 0.204 µM | – | – | CCC[C@@H](CCO)Nc1nc(N)nc2cnn(Cc3cc(CN4C[C@H]5C[C@@H]4CN5CCO)c(F)cc3OC)c12 [Compound 175, (3S)-3-({5-amino-1-[(4-fluoro-5-{[(1R,4R)-5-(2-hydroxyethyl)-2,5-diazabicyclo[2.2.1]heptan-2-yl]methyl}-2-methoxyphenyl)-methyl]-1H-pyrazolo[4,3-d]pyrimidin-7-yl}amino)hexan-1-ol] |
| 0.0057 µM | 0.0572 µM | – | – | CCC[C@@H](CCO)Nc1nc(N)nc2cnn(Cc3cc(CN4CC[C@H](O)C4)c(F)cc3OC)c12 [Compound 176, (3S)-1-({5-[(5-amino-7-{[(3S)-1-hydroxyhexan-3-yl]amino}-1H-pyrazolo[4,3-d]pyrimidin-1-yl)methyl]-2-fluoro-4-methoxyphenyl}methyl) pyrrolidin-3-ol] |
| 0.0345 µM | 0.75 µM | – | – | CCC[C@@H](CCO)Nc1nc(N)nc2cnn(Cc3cc(CN4CCN(C)CC4)ncc3OC)c12 [Compound 177, (3S)-3-{[5-amino-1-({5-methoxy-2-[(4-methylpiperazin-1-yl)methyl]-pyridin-4-yl}methyl)-1H-pyrazolo[4,3-d]pyrimidin-7-yl]amino}hexan-1-ol] |
| 0.0339 µM | 0.617 µM | – | – | CCC[C@@H](CCO)Nc1nc(N)nc2cnn(Cc3cc(CNC)ncc3OC)c12 [Compound 178, (3S)-3-{[5-amino-1-({5-methoxy-2-[(methylamino)methyl]pyridin-4-yl}methyl)-1H-pyrazolo[4,3-d]pyrimidin-7-yl]amino}hexan-1-ol] |
| – | – | 0.0295 µM | 0.0942 µM | N7-butyl-1-[(2-methoxy-5- {[(1S,4S)-5-methyl-2,5- diazabicyclo[2.2.1]heptan-2- yl]methyl}phenyl)methyl]- 1H-pyrazolo[4,3-d] pyrimidine-5,7-diamine [Compound 142] |
| – | – | 0.325 µM | 0.448 µM | N7-butyl-1-{[2-methoxy-5- ({octahydropyrrolo[3,4-c]- pyrrol-2-yl}methyl)phenyl]- methyl}-1H-pyrazolo[4,3- d]pyrimidine-5,7-diamine [Compound 135] |
